Results reported in patent publication US20070213291A1, “Therapeutically useful synthetic oligonucleotides” (priority 1999, published 2007).
Several values for one entry are separate records, joined by “and”; a condition that tells them apart may be missing. Identical values can stand only once.

Tests used:
caspase 3 = experiment: Caspase 3 activation, colorimetric (p-nitroanilide peptide cleavage); type: cell-based, human; conditions: Jurkat, 72 h, 100 μg/ml
Procedure: To determine caspase activation, control and treated cells are washed, fixed, permeabilized and incubated with an FITC-conjugated antibody that recognizes the active form of the caspase (Pharmingen, San Diego, Calif.) using the conditions recommended by the manufacturer. Fluorescence associated with active caspase 3 is analyzed by flow cytometry on a FACSCALIBUR using the program CellQUEST (Becton Dickinson). Alternatively, caspase activation is determined colorimetrically using an assay based on the cleavage of a caspase-specific peptide conjugated to the color reporter molecule p-nitroanilide, which can be quantitated spectrophotometrically at a wavelength of 405 nm.
Jurkat T cell leukemia cells were incubated for 72 h with 33 base GT SEQ ID NO:66; 11 base GT SEQ ID NO:81 (bases 1-11 of GT SEQ ID NO:66), 11 base GT SEQ ID NO:82 (bases 12-22 of GT SEQ ID NO:66), 11 base GT SEQ ID NO:83 (bases 23-33 of GT SEQ ID NO:66) and 15 base ACG SEQ ID NO:67. Active caspase 3 (17-22 kDa) was determined using FITC conjugated antibody (Clone: C92-605) as in Example 28.
Caspase 3 activation also was determined colorimetrically as in Example 28.
Jurkat T cell leukemia cells were incubated for 72 h with 6 base GT SEQ ID NO:25. Caspase 3 activation was determined colorimetrically as in Example 28.

[1] = system: MCF-7 human breast cancer cells; experiment: MCF-7 human breast tumor xenografts in female nude BALB/c mice; type: in vivo; conditions: after 4 weeks of treatment, compared with other groups (group 1 saline)
Procedure: MCF-7 human breast cancer cells are implanted subcutaneously as xenografts, in female nude BALB/c mice. The mice are divided into 6 groups of 10 mice. […] After 4 weeks of treatment, the mice are sacrificed and tumor mass is determined.

[2] = system: OVCAR-3 human ovarian cancer cells; experiment: Inhibition of OVCAR-3 cell proliferation (MTT); type: cell-based; conditions: 100 μg/ml, 48 h, 5×10^5 cells/ml
Procedure: Cells were seeded in 6 (1 ml/well), 24 (0.5 ml/well) or 96 (0.1 ml/well) well flat-bottom microplates and were maintained at 37° C. in a 5% CO2 atmosphere. Unless stated otherwise, 2.5×10^5 cells/ml were incubated with 0 μg/ml (control) and 100 μg/ml (treated) of 2 to 45 base sequences containing A, C, G and T for 48 h.
Cell proliferation was measured using dimethylthiazol-diphenyl-tetrazolium (MTT) reduction (Mosman et al. J. Immunol. Methods 65:55, 1983). MTT was measured at a wavelength of 570 nm using a multiplate spectrophotometer reader (ELX800, Bio-TEK Instruments Inc., Winooski, Vt.).
OVCAR-3 ovarian cancer cells are a p53 mutated, p21/waf-1/Cip deleted, metastatic human solid tumor model. OVCAR-3 cells (5×10^5 cells/ml) were incubated with 2, 6 and 18 base GT sequences and with a 6 base AGT sequence (Table 11).

GGGTGG [SEQ ID NO:25] was tested, and the “caspase 3 activity greater than in control cells” value (caspase 3) was 323%, the tumor mass [1] was “less tumor mass than group 1 mice” and the “% INHIBITION of OVCAR-3 human ovarian cancer cell proliferation” value [2] was 15% and 14%.
